# How the values were obtained:
# [1] = target: Human sodium/glucose co-transporter type 2 (SGLT2) (Homo sapiens (Human), UniProt P31639); experiment: In vitro human SGLT2 inhibition assay (14C-AMG uptake); format: cell-based; settings: HEK293 cells expressing human HA-SGLT2, 14C-AMG uptake
# Description: Human sodium/glucose co-transporter type 2 (SGLT2; accession number P31639; GI:400337) was cloned into pIRESpuro2 vector for mammalian expression (construct: HA-SGLT2-pIRESpuro2).
# HEK293 cells were transfected with the human HA-SGLT2-pIRESpuro2 vector and the bulk stable cell line was selected in presence of 0.5 μg/mL of puromycin. Human HA-SGLT2 cells were maintained in DMEM media containing 10% FBS, 1% GPS and 0.5 μg/mL of puromycin.
# The HEK293 cells expressing the human HA-SGLT2 were seeded in 384 well plates (30,000 cells/well) in DMEM media containing 10% FBS, 1% GPS and 0.5 μg/mL of puromycin, then incubated overnight at 37 C, 5% CO2. Cells were then washed with uptake buffer (140 mM NaCl, 2 mM KCl, 1 mM CaCl2, 1 mM MgCl2, 10 mM HEPES, 5 mM Tris, 1 mg/mL bovine serum albumin (BSA), pH 7.3). Twenty microliters of uptake buffer with or without testing compounds were added to the cells. Then, 20 microliters of uptake buffer containing ^14C-AMG (100 nCi) were added to the cells. The cell plates were incubated at 37° C., 5% CO2 for 1-2 hours. After washing the cells with uptake buffer, scintillation fluid was added (40 microliters/well) and ^14C-AMG uptake was measured by counting radioactivity using a scintillation coulter (TopCoulter NXT; Packard Instruments).
# [2] = target: Human sodium/glucose co-transporter type 1 (SGLT1) (Homo sapiens (Human), UniProt P13866); experiment: In vitro human SGLT1 inhibition assay (14C-AMG uptake); format: cell-based; settings: HEK293 cells expressing human HA-SGLT1, 14C-AMG uptake
# Description: Human sodium/glucose co-transporter type 1 (SGLT1; accession number NP_000334; GI: 4507031) was cloned into pIRESpuro2 vector for mammalian expression (construct: HA-SGLT1-pIRESpuro2).
# HEK293 cells were transfected with the human HA-SGLT1-pIRESpuro2 vector and the bulk stable cell line was selected in presence of 0.5 μg/mL of puromycin. Human HA-SGLT1 cells were maintained in DMEM media containing 10% FBS, 1% GPS and 0.5 μg/mL of puromycin.
# The HEK293 cells expressing the human HA-SGLT1 were seeded in 384 well plates (30,000 cells/well) in DMEM media containing 10% FBS, 1% GPS and 0.5 μg/mL of puromycin, then incubated overnight at 37 C, 5% CO2. Cells were then washed with uptake buffer (140 mM NaCl, 2 mM KCl, 1 mM CaCl2, 1 mM MgCl2, 10 mM HEPES, 5 mM Tris, 1 mg/mL bovine serum albumin (BSA), pH 7.3). Twenty microliters of uptake buffer with or without testing compounds were added to the cells. Then, 20 microliters of uptake buffer containing ^14C-AMG (100 nCi) were also added to cells. The cell plates were incubated at 37° C., 5% CO2 for 1-2 hours. After washing the cells with uptake buffer, scintillation fluid was added (40 microliters/well) and ^14C-AMG uptake was measured by counting radioactivity using a scintillation coulter (TopCoulter NXT; Packard Instruments).
# Sequence of Human sodium/glucose co-transporter type 2 (SGLT2) (P31639 whole entry): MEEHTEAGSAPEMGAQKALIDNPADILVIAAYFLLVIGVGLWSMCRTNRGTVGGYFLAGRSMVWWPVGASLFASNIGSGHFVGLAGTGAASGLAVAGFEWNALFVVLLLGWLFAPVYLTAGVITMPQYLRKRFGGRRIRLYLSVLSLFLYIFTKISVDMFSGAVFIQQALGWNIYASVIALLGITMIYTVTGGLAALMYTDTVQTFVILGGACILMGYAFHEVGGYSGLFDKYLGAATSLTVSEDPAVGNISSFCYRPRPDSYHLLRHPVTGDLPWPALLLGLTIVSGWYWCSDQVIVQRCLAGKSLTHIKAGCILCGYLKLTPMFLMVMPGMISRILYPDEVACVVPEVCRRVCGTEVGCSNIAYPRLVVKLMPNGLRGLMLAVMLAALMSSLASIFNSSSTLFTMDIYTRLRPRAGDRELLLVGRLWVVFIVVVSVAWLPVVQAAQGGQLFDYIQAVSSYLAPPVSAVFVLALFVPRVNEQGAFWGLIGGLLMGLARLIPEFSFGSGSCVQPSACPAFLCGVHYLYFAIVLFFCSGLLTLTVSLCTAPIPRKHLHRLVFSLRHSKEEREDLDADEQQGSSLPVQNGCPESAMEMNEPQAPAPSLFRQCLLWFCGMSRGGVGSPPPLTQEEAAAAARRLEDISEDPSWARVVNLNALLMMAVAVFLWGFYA
# Sequence of Human sodium/glucose co-transporter type 1 (SGLT1) (P13866 whole entry): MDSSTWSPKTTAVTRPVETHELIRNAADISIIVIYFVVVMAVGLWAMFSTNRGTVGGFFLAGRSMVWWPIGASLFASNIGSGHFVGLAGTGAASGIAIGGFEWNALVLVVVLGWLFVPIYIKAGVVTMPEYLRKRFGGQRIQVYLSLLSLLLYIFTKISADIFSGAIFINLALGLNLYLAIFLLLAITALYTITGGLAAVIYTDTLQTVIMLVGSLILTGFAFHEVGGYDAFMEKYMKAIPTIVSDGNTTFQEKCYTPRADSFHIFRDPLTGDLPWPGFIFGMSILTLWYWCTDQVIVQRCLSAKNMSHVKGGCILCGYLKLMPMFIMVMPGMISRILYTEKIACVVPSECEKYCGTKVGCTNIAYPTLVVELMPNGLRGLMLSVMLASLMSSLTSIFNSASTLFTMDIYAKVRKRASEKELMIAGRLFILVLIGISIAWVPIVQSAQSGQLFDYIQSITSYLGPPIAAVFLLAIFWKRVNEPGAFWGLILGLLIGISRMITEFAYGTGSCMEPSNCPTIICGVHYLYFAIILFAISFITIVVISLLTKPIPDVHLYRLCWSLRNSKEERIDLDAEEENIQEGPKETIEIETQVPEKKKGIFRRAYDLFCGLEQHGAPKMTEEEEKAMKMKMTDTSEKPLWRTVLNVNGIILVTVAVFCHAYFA
IC50 [1] [nM],IC50 [2] [nM],Compound
< 10,< 100,"CS[C@H]1O[C@@H](c2ccc(Cl)c(Cc3ccc(OCC(=O)NC(C)(C)C(=O)N4CCN(C)CC4)cc3)c2)[C@H](O)[C@@H](O)[C@@H]1O [2-(4-(2-chloro-5-((2S,3R,4R,5S,6R)-3,4,5-trihydroxy-6-(methylthio)tetrahydro-2H-pyran-2-yl)benzyl)phenoxy)-N-(2-methyl-1-(4-methylpiperazin-1-yl)-1-oxopropan-2-yl)acetamide]"
< 10,< 100,"CS[C@H]1O[C@@H](c2ccc(C)c(Cc3ccc(Cl)cc3)c2)[C@H](O)[C@@H](O)[C@@H]1O [(2S,3R,4R,5S,6R)-2-(3-(4-chlorobenzyl)-4-methylphenyl)-6-(methylthio)tetrahydro-2H-pyran-3,4,5-triol]"
< 10,< 100,"CS[C@H]1O[C@@H](c2ccc(C)c(Cc3ccc(CCCCNC4(C(N)=O)CCCC4)cc3)c2)[C@H](O)[C@@H](O)[C@@H]1O [1-((4-(4-(2-methyl-5-((2S,3R,4R,5S,6R)-3,4,5-trihydroxy-6-(methylthio)tetrahydro-2H-pyran-2-yl)benzyl)phenyl)butyl)amino)cyclopentanecarboxamide]"
< 100,< 1000,"CS[C@H]1O[C@@H](c2ccc(Cl)c(Cc3ccc(OCC(=O)O)cc3)c2)[C@H](O)[C@@H](O)[C@@H]1O [2-(4-(2-chloro-5-((2S,3R,4R,5S,6R)-3,4,5-trihydroxy-6-(methylthio)tetrahydro-2H-pyran-2-yl)benzyl)phenoxy)acetic acid]"
< 10,< 10,"CS[C@H]1O[C@@H](c2ccc(C)c(Cc3ccc(CCCC(=O)NCCCC[C@H](N)C(=O)O)cc3)c2)[C@H](O)[C@@H](O)[C@@H]1O [(S)-2-amino-6-(4-(4-(2-methyl-5-((2S,3R,4R,5S,6R)-3,4,5-trihydroxy-6-(methylthio)tetrahydro-2H-pyran-2-yl)benzyl)phenyl)butanamido)hexanoic acid]"
< 10,< 10,"CS[C@H]1O[C@@H](c2ccc(Cl)c(Cc3ccc(OCCNC(=O)NC(C)(C)CO)cc3)c2)[C@H](O)[C@@H](O)[C@@H]1O [1-(2-(4-(2-chloro-5-((2S,3R,4R,5S,6R)-3,4,5-trihydroxy-6-(methylthio)tetrahydro-2H-pyran-2-yl)benzyl)phenoxy)ethyl)-3-(1-hydroxy-2-methylpropan-2-yl)urea]"
< 10,< 1000,"CS[C@H]1O[C@@H](c2ccc(Cl)c(Cc3ccc(OCCCC(=O)O)cc3)c2)[C@H](O)[C@@H](O)[C@@H]1O [4-(4-(2-chloro-5-((2S,3R,4R,5S,6R)-3,4,5-trihydroxy-6-(methylthio)tetrahydro-2H-pyran-2-yl)benzyl)phenoxy)butanoic acid]"
< 10,< 10,"CS[C@H]1O[C@@H](c2ccc(C)c(Cc3ccc(CCCC(=O)NC(C)(C)C(=O)N4CCN(C(=O)OC(C)(C)C)CC4)cc3)c2)[C@H](O)[C@@H](O)[C@@H]1O [tert-butyl 4-(2-methyl-2-(4-(4-(2-methyl-5-((2S,3R,4R,5S,6R)-3,4,5-trihydroxy-6-(methylthio)tetrahydro-2H-pyran-2-yl)benzyl)phenyl)butanamido)propanoyl)piperazine-1-carboxylate]"
< 10,< 100,"CS[C@H]1O[C@@H](c2ccc(C)c(Cc3ccc(CCCCC(=O)N4CCN(C)CC4)cc3)c2)[C@H](O)[C@@H](O)[C@@H]1O [5-(4-(2-methyl-5-((2S,3R,4R,5S,6R)-3,4,5-trihydroxy-6-(methylthio)tetrahydro-2H-pyran-2-yl)benzyl)phenyl)-1-(4-methylpiperazin-1-yl)pentan-1-one]"

# Further lines, the molecule ahead of its results:
Compound,IC50 [1] [nM],IC50 [2] [nM]
"CS[C@H]1O[C@@H](c2ccc(C)c(Cc3ccc(CCCC(=O)NC(C)(C)C(=O)N4CCN(CCO)CC4)cc3)c2)[C@H](O)[C@@H](O)[C@@H]1O [N-(1-(4-(2-hydroxyethyl)piperazin-1-yl)-2-methyl-1-oxopropan-2-yl)-4-(4-(2-methyl-5-((2S,3R,4R,5S,6R)-3,4,5-trihydroxy-6-(methylthio)tetrahydro-2H-pyran-2-yl)benzyl)phenyl)butanamide]",< 10,< 10
"CS[C@H]1O[C@@H](c2ccc(C)c(Cc3ccc(OCCCC(=O)NC(CO)(CO)CO)cc3)c2)[C@H](O)[C@@H](O)[C@@H]1O [N-(1,3-dihydroxy-2-(hydroxymethyl)propan-2-yl)-4-(4-(2-methyl-5-((2S,3R,4R,5S,6R)-3,4,5-trihydroxy-6-(methylthio)tetrahydro-2H-pyran-2-yl)benzyl)phenoxy)butanamide]",< 10,< 10
"CS[C@H]1O[C@@H](c2ccc(C)c(Cc3ccc(CCCCNC(=O)C(C)(C)CO)cc3)c2)[C@H](O)[C@@H](O)[C@@H]1O [3-hydroxy-2,2-dimethyl-N-(4-(4-(2-methyl-5-((2S,3R,4R,5S,6R)-3,4,5-trihydroxy-6-(methylthio)tetrahydro-2H-pyran-2-yl)benzyl)phenyl)butyl)propanamide]",< 10,< 10
"CS[C@H]1O[C@@H](c2ccc(C)c(Cc3ccc(CCCC(=O)NC(C)(C)C(N)=O)cc3)c2)[C@H](O)[C@@H](O)[C@@H]1O [N-(1-amino-2-methyl-1-oxopropan-2-yl)-4-(4-(2-methyl-5-((2S,3R,4R,5S,6R)-3,4,5-trihydroxy-6-(methylthio)tetrahydro-2H-pyran-2-yl)benzyl)phenyl)butanamide]",< 10,< 10
"CCN(CC)C(=O)CCCOc1ccc(Cc2cc([C@@H]3O[C@H](SC)[C@@H](O)[C@H](O)[C@H]3O)ccc2Cl)cc1 [4-(4-(2-chloro-5-((2S,3R,4R,5S,6R)-3,4,5-trihydroxy-6-(methylthio)tetrahydro-2H-pyran-2-yl)benzyl)phenoxy)-N,N-diethylbutanamide]",< 10,< 100
"CCOc1ccc(Cc2cc([C@@H]3O[C@H](SC)[C@@H](O)[C@H](O)[C@H]3O)ccc2C)cc1 [(2S,3R,4R,5S,6R)-2-(3-(4-ethoxybenzyl)-4-methylphenyl)-6-(methylthio)tetrahydro-2H-pyran-3,4,5-triol]",< 10,< 100
"CS[C@H]1O[C@@H](c2ccc(C)c(Cc3ccc(CCCCNC(=O)N4CCN(C)CC4)cc3)c2)[C@H](O)[C@@H](O)[C@@H]1O [4-methyl-N-(4-(4-(2-methyl-5-((2S,3R,4R,5S,6R)-3,4,5-trihydroxy-6-(methylthio)tetrahydro-2H-pyran-2-yl)benzyl)phenyl)butyl)piperazine-1-carboxamide]",< 10,< 100
"CS[C@H]1O[C@@H](c2ccc(C)c(Cc3ccc(OCCCC(=O)NC(C)(C)C(=O)N4CCOCC4)cc3)c2)[C@H](O)[C@@H](O)[C@@H]1O [N-(2-methyl-1-morpholino-1-oxopropan-2-yl)-4-(4-(2-methyl-5-((2S,3R,4R,5S,6R)-3,4,5-trihydroxy-6-(methylthio)tetrahydro-2H-pyran-2-yl)benzyl)phenoxy)butanamide]",< 10,< 10
"CS[C@H]1O[C@@H](c2ccc(C)c(Cc3ccc(OCCCC(=O)NC(C)(CO)CO)cc3)c2)[C@H](O)[C@@H](O)[C@@H]1O [N-(1,3-dihydroxy-2-methylpropan-2-yl)-4-(4-(2-methyl-5-((2S,3R,4R,5S,6R)-3,4,5-trihydroxy-6-(methylthio)tetrahydro-2H-pyran-2-yl)benzyl)phenoxy)butanamide]",< 100,< 100
"CS[C@H]1OC(c2ccc(C)c(Cc3ccc(OCCCNC(CO)CO)cc3)c2)[C@H](O)[C@@H](O)[C@@H]1O (stereo partly drawn) [(3R,4R,5S,6R)-2-(3-(4-(3-((1,3-dihydroxypropan-2-yl)amino)propoxy)benzyl)-4-methylphenyl)-6-(methylthio)tetrahydro-2H-pyran-3,4,5-triol]",< 10,< 10
